Data published in ChEMBL document CHEMBL4270667, “Design and Synthesis of Potent HIV-1 Protease Inhibitors Containing Bicyclic Oxazolidinone Scaffold as the P2 Ligands: Structure-Activity Studies and Biological and X-ray Structural Studies” (J Med Chem, 2018).

Assays:
[1] = system: Human immunodeficiency virus 1; assay: Antiviral activity against lopinavir-resistant HIV1 infected in human MT4 cells assessed as reduction in p24 Gag protein production after 7 days by automated chemiluminescent enzyme immunoassay; type: functional, organism-based; conditions: Human immunodeficiency virus 1, MT4, 168 h
[2] = system: Human immunodeficiency virus 1; assay: Antiviral activity against amprenavir-resistant HIV1 infected in human MT4 cells assessed as reduction in p24 Gag protein production after 7 days by automated chemiluminescent enzyme immunoassay; type: functional, organism-based; conditions: Human immunodeficiency virus 1, MT4, 168 h
[3] = Selectivity ratio of CC50 for human MT4 cells to IC50 for HIV1 NL4-3 infected in human MT4 cells; type: toxicity, cell-based; conditions: MT4 cells infected with HIV1 NL4-3, read-out: Ratio CC50/IC50
MT4 = assay: Cytotoxicity against human MT4 cells after 7 days by MTT assay; type: cell-based; conditions: mt4, 168 h
[4] = system: Human immunodeficiency virus 1; assay: Antiviral activity against darunavir-resistant HIV1 at passage 51 infected in human MT4 cells assessed as reduction in p24 Gag protein production after 7 days by automated chemiluminescent enzyme immunoassay; type: functional, organism-based; conditions: Human immunodeficiency virus 1, MT4, 168 h
[5] = system: Human immunodeficiency virus 1; assay: Antiviral activity against HIV1 NL4-3 infected in human MT4 cells assessed as reduction in p24 Gag protein production after 7 days by automated chemiluminescent enzyme immunoassay; type: functional, organism-based; conditions: Human immunodeficiency virus 1, NL4-3, MT4, 168 h
[6] = system: Human immunodeficiency virus 1; assay: Antiviral activity against darunavir-resistant HIV1 at passage 21 infected in human MT4 cells assessed as reduction in p24 Gag protein production after 7 days by automated chemiluminescent enzyme immunoassay; type: functional, organism-based; conditions: Human immunodeficiency virus 1, MT4, 168 h
[7] = system: Human immunodeficiency virus 1; assay: Antiviral activity against Atazanavir-resistant HIV1 infected in human MT4 cells assessed as reduction in p24 Gag protein production after 7 days by automated chemiluminescent enzyme immunoassay; type: functional, organism-based; conditions: Human immunodeficiency virus 1, MT4, 168 h
[8] = system: Human immunodeficiency virus 1; assay: Antiviral activity against darunavir-resistant HIV1 at passage 30 infected in human MT4 cells assessed as reduction in p24 Gag protein production after 7 days by automated chemiluminescent enzyme immunoassay; type: functional, organism-based; conditions: Human immunodeficiency virus 1, MT4, 168 h
Protease = Protease (Human immunodeficiency virus 1, UniProt Q9YQ12); assay: Inhibition of HIV1 wild type NL4-3 protease expressed in Escherichia coli Rosetta (DE3) pLysS using Abz-Thr-Ile-Nle-Phe-(pNO2)-Gln-Arg-NH2 as substrate preincubated for 5 to 10 mins followed by substrate addition measured after 1 hr by fluorescence assay
Protease, sequence (Q9YQ12 whole entry): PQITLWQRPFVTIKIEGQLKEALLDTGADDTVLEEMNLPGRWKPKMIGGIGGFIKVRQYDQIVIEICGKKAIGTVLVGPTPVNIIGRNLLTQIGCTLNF

SMILES | IC50 [1] [nM] | IC50 [2] [nM] | selectivity ratio [3] | CC50 (MT4) [nM] | IC50 [4] [nM] | IC50 [5] [nM] | IC50 [6] [nM] | IC50 [7] [nM] | IC50 [8] [nM] | Ki (Protease) [nM]
C=C(C)CN1C(=O)O[C@@H]2C[C@H](OC(=O)N[C@@H](Cc3ccccc3)[C@H](O)CN(CC(C)C)S(=O)(=O)c3ccc(OC)cc3)C[C@@H]21 | > 1000 | 261 | > 3230 | > 100000 | > 1000 | 23 to 31 | > 1000 | 36 | > 1000 | 0.04
COc1ccc(S(=O)(=O)N(CC(C)C)C[C@@H](O)[C@H](Cc2ccccc2)NC(=O)O[C@H]2C[C@H]3OC(=O)N(CC(C)C)[C@H]3C2)cc1 | 615 | 309 | > 2440 | > 100000 | > 1000 | – | > 1000 | 33 | > 1000 | 0.16
COc1ccc(S(=O)(=O)N(CC(C)C)C[C@@H](O)[C@H](Cc2ccccc2)NC(=O)O[C@@H]2C[C@@H]3OC(=O)N[C@@H]3C2)cc1 | – | – | – | – | – | > 1000 | – | – | – | 1.33
COC(=O)N[C@H](C(=O)N[C@@H](Cc1ccccc1)[C@@H](O)CN(Cc1ccc(-c2ccccn2)cc1)NC(=O)[C@@H](NC(=O)OC)C(C)(C)C)C(C)(C)C [ATAZANAVIR] | 293 | 2 | – | – | > 1000 | 0.89 | > 1000 | > 1000 | > 1000 | –
CC(C)(C)NC(=O)[C@@H]1C[C@@H]2CCCC[C@@H]2CN1C[C@@H](O)[C@H](Cc1ccccc1)NC(=O)[C@H](CC(N)=O)NC(=O)c1ccc2ccccc2n1 | – | – | – | – | – | 21 | – | – | – | –
CC(C)CN(C[C@@H](O)[C@H](Cc1ccccc1)NC(=O)O[C@H]1CO[C@H]2OCC[C@H]21)S(=O)(=O)c1ccc(N)cc1 | – | – | – | – | > 1000 | 3.2 to 3.5 | – | – | – | –
C=CCN1C(=O)O[C@@H]2C[C@H](OC(=O)N[C@@H](Cc3ccccc3)[C@H](O)CN(CC(C)C)S(=O)(=O)c3ccc(OC)cc3)C[C@@H]21 | – | – | – | – | – | 369 | – | – | – | 0.016
COc1ccc(S(=O)(=O)N(CC(C)C)C[C@@H](O)[C@H](Cc2ccccc2)NC(=O)O[C@H]2C[C@H]3OC(=O)N(c4cccc(OC)c4)[C@H]3C2)cc1 | – | – | – | – | – | > 1000 | – | – | – | 92.8
CC(C)CN(C[C@@H](O)[C@H](Cc1ccccc1)NC(=O)O[C@H]1CCOC1)S(=O)(=O)c1ccc(N)cc1 | > 1000 | > 1000 | – | – | > 1000 | 431 | > 1000 | > 1000 | > 1000 | –
COCN1C(=O)O[C@@H]2C[C@H](OC(=O)N[C@@H](Cc3ccccc3)[C@H](O)CN(CC(C)C)S(=O)(=O)c3ccc(OC)cc3)C[C@@H]21 | – | – | – | – | – | 84 | – | – | – | 0.016
COc1ccc(S(=O)(=O)N(CC(C)C)C[C@@H](O)[C@H](Cc2ccccc2)NC(=O)O[C@H]2C[C@H]3OC(=O)N(C)[C@H]3C2)cc1 | – | – | > 2780 | – | – | 36 | – | – | – | 0.03
CCCN1C(=O)O[C@@H]2C[C@H](OC(=O)N[C@@H](Cc3ccccc3)[C@H](O)CN(CC(C)C)S(=O)(=O)c3ccc(OC)cc3)C[C@@H]21 | – | – | – | – | – | 447 | – | – | – | 0.14
COc1ccc(N2C(=O)O[C@@H]3C[C@H](OC(=O)N[C@@H](Cc4ccccc4)[C@H](O)CN(CC(C)C)S(=O)(=O)c4ccc(OC)cc4)C[C@@H]32)cc1 | – | – | – | – | – | > 1000 | – | – | – | 0.63
CC(C)CN(C[C@@H](O)[C@H](Cc1ccccc1)NC(=O)O[C@H]1C[C@H]2OC(=O)N(C)[C@H]2C1)S(=O)(=O)c1ccc2nc(NC3CC3)sc2c1 | – | – | 1540 | 43000 | – | 28 | – | – | – | 0.19
COc1ccc(S(=O)(=O)N(CC(C)C)C[C@@H](O)[C@H](Cc2ccccc2)NC(=O)O[C@@H]2C[C@@H]3NC(=O)O[C@@H]3C2)cc1 | – | – | > 2070 | > 100000 | – | 48.3 | – | – | – | 0.0012
Cc1cccc(C)c1OCC(=O)N[C@@H](Cc1ccccc1)[C@@H](O)C[C@H](Cc1ccccc1)NC(=O)[C@H](C(C)C)N1CCCNC1=O [LOPINAVIR] | > 1000 | 218 | – | – | > 1000 | 6 | > 1000 | 311 | > 1000 | –
COc1ccc(S(=O)(=O)N(CC(C)C)C[C@@H](O)[C@H](Cc2ccccc2)NC(=O)O[C@H]2C[C@H]3OC(=O)N(c4ccccc4)[C@H]3C2)cc1 | – | – | – | – | – | > 1000 | – | – | – | 0.33
COc1ccc(S(=O)(=O)N(CC(C)C)C[C@@H](O)[C@H](Cc2ccccc2)NC(=O)O[C@@H]2C[C@@H]3OC(=O)N(C)[C@@H]3C2)cc1 | – | – | > 229 | > 100000 | – | 436 | – | – | – | 0.16
COc1ccc(S(=O)(=O)N(CC(C)C)C[C@@H](O)[C@H](Cc2ccccc2)NC(=O)O[C@H]2C[C@H]3OC(=O)N(c4ccccc4OC)[C@H]3C2)cc1 | – | – | – | – | – | 251 | – | – | – | 0.08
